Values after ≈ are worked out from the molar mass of the structure shown.
Key:
[1] = test system: Staphylococcus aureus S13E; assay type: cell-based
Experimental: (§1) The MIC's were determined using a standard broth micro-dilution assay.

[2] = test system: Staphylococcus aureus SA1199B; assay type: cell-based
Experimental: as §1

[3] = test system: Entercoccus faecium 180-1; assay: broth micro-dilution MIC; assay type: cell-based
Experimental: as §1

Entercoccus faecium 276 = assay: broth micro-dilution MIC; assay type: cell-based
Experimental: as §1

[4] = test system: Staphylococcus aureus 446; assay: broth micro-dilution MIC; assay type: cell-based
Experimental: as §1

[5] = test system: Staphylococcus aureus 447; assay: broth micro-dilution MIC; assay type: cell-based
Experimental: as §1

[6] = test system: Staphylococcus aureus 489; assay: broth micro-dilution MIC; assay type: cell-based
Experimental: as §1

[7] = test system: Staphylococcus aureus 491; assay: broth micro-dilution MIC; assay type: cell-based
Experimental: as §1

[8] = test system: Staphylococcus aureus SA1199A; assay: broth micro-dilution MIC; assay type: cell-based
Experimental: as §1

[9] = test system: Staphylococcus aureus SA1199; assay: broth micro-dilution MIC; assay type: cell-based
Experimental: as §1

[10] = test system: Staphylococcus aureus X400; assay: broth micro-dilution MIC; assay type: cell-based
Experimental: as §1

[11] = test system: Staphylococcus aureus X778; assay: broth micro-dilution MIC; assay type: cell-based
Experimental: as §1

[12] = test system: Streptococcus pyogenes C203; assay: broth micro-dilution MIC; assay type: cell-based
Experimental: as §1

Entercoccus faecium 180 = assay: broth micro-dilution MIC; assay type: cell-based; details: Entercoccus faecium 180
Experimental: (§2) The formula I compounds have in vitro and in vivo activity against Gram-positive pathogenic bacteria. The MIC's were determined using a standard broth micro-dilution assay.

Entercoccus faecium 2041 = assay: broth micro-dilution MIC; assay type: cell-based; details: Entercoccus faecium 2041
Experimental: as §2

[13] = test system: Enterococcus gallinarum 245; assay: broth micro-dilution MIC; assay type: cell-based; details: Enterococcus gallinarum 245
Experimental: as §2

Escherichia coli EC14 = assay: broth micro-dilution MIC; assay type: cell-based
Experimental: as §2

[14] = test system: Haemophilus influenzae RD; assay: broth micro-dilution MIC; assay type: cell-based; details: Haemophilus influenzae RD
Experimental: as §2

[15] = test system: Staphylococcus epidermidis 270; assay: broth micro-dilution MIC; assay type: cell-based
Experimental: as §2

[16] = test system: Staphylococcus haemolyticus 105; assay: broth micro-dilution MIC; assay type: cell-based
Experimental: as §2

[17] = test system: Staphylococcus haemolyticus 415; assay: broth micro-dilution MIC; assay type: cell-based
Experimental: as §2

[18] = test system: Streptococcus pneumoniae P1; assay: broth micro-dilution MIC; assay type: cell-based
Experimental: as §2

[19] = test system: vancomycin-resistant enterococci; assay: broth micro-dilution, mean geometric MIC; assay type: cell-based, Enterococcus faecium and Enterococcus faecalis; details: enterococci, 24-hour incubation
[20] = test system: vancomycin-susceptible enterococci; assay: broth micro-dilution, mean geometric MIC; assay type: cell-based, Enterococcus faecium and Enterococcus faecalis; details: enterococci, 24-hour incubation

Structure (SMILES)	MIC [1]	MIC [2]	MIC [3]	MIC (Entercoccus faecium 276)	MIC [4]	MIC [5]	MIC [6]	MIC [7]	MIC [8]	MIC [9]	MIC [10]	MIC [11]	MIC [12]	MIC (Entercoccus faecium 180)	MIC (Entercoccus faecium 2041)	MIC [13]	MIC (Escherichia coli EC14)	MIC [14]	MIC [15]	MIC [16]	further results
CC(C)CC(C(=O)NC1C(=O)NC(CC(N)=O)C(=O)NC2C(=O)NC3C(=O)NC(C(=O)NC(C(=O)O)c4cc(O)cc(O)c4-c4cc3ccc4O)C(OC3CC(C)(N)C(O)C(C)O3)c3ccc(c(Cl)c3)Oc3cc2cc(c3OC2OC(CO)C(O)C(O)C2OC2CC(C)(NCc3cccc(Oc4ccccc4)c3)C(O)C(C)O2)Oc2ccc(cc2Cl)C1O)N(C)Cc1cccc(Oc2ccccc2)c1 (stereo not drawn) [Compound 271]	1 µg/mL (≈ 0.511 µM)	1 µg/mL (≈ 0.511 µM)	0.125 µg/mL (≈ 0.0639 µM)	1 µg/mL (≈ 0.511 µM)	1 µg/mL (≈ 0.511 µM)	2 µg/mL (≈ 1.02 µM)	1 µg/mL (≈ 0.511 µM)	0.5 µg/mL (≈ 0.256 µM)	0.5 µg/mL (≈ 0.256 µM)	2 µg/mL (≈ 1.02 µM)	2 µg/mL (≈ 1.02 µM)	0.5 µg/mL (≈ 0.256 µM)	≤ 0.06 µg/mL	2 µg/mL (≈ 1.02 µM)	2 µg/mL (≈ 1.02 µM)	2 µg/mL (≈ 1.02 µM)	> 64 µg/mL	> 64 µg/mL	1 µg/mL (≈ 0.511 µM)	2 µg/mL (≈ 1.02 µM)	MIC [17]: 2 µg/mL (≈ 1.02 µM); MIC [18]: ≤ 0.06 µg/mL; mean geometric MIC, Vancomycin Resistant Strains [19]: 5.7 µg/mL; mean geometric MIC, Vancomycin Sensitive Strains [20]: 0.33 µg/mL
CC(C)CC(C(=O)NC1C(=O)NC(CC(N)=O)C(=O)NC2C(=O)NC3C(=O)NC(C(=O)NC(C(=O)O)c4cc(O)cc(O)c4-c4cc3ccc4O)C(OC3CC(C)(N)C(O)C(C)O3)c3ccc(c(Cl)c3)Oc3cc2cc(c3OC2OC(CO)C(O)C(O)C2OC2CC(C)(NCc3ccc4c(c3)OCO4)C(O)C(C)O2)Oc2ccc(cc2Cl)C1O)N(C)Cc1ccc2c(c1)OCO2 (stereo not drawn) [Compound 265]	0.5 µg/mL (≈ 0.269 µM)	0.5 µg/mL (≈ 0.269 µM)	≤ 0.06 µg/mL	0.5 µg/mL (≈ 0.269 µM)	2 µg/mL (≈ 1.07 µM)	2 µg/mL (≈ 1.07 µM)	0.5 µg/mL (≈ 0.269 µM)	2 µg/mL (≈ 1.07 µM)	≤ 0.06 µg/mL	2 µg/mL (≈ 1.07 µM)	0.5 µg/mL (≈ 0.269 µM)	0.5 µg/mL (≈ 0.269 µM)	≤ 0.06 µg/mL	8 µg/mL (≈ 4.3 µM)	0.25 µg/mL (≈ 0.134 µM)	1 µg/mL (≈ 0.537 µM)	> 64 µg/mL	> 64 µg/mL	4 µg/mL (≈ 2.15 µM)	8 µg/mL (≈ 4.3 µM)	MIC [17]: 1 µg/mL (≈ 0.537 µM); MIC [18]: ≤ 0.06 µg/mL; mean geometric MIC, Vancomycin Resistant Strains [19]: 54 µg/mL; mean geometric MIC, Vancomycin Sensitive Strains [20]: 0.87 µg/mL
CC(C)CC(C(=O)NC1C(=O)NC(CC(N)=O)C(=O)NC2C(=O)NC3C(=O)NC(C(=O)NC(C(=O)O)c4cc(O)cc(O)c4-c4cc3ccc4O)C(OC3CC(C)(N)C(O)C(C)O3)c3ccc(c(Cl)c3)Oc3cc2cc(c3OC2OC(CO)C(O)C(O)C2OC2CC(C)(N)C(O)C(C)O2)Oc2ccc(cc2Cl)C1O)N(C)Cc1ccc(O)cc1 (stereo not drawn) [Compound 257]	≤ 0.06 µg/mL	≤ 0.06 µg/mL	≤ 0.06 µg/mL	≤ 0.06 µg/mL	≤ 0.06 µg/mL	0.25 µg/mL (≈ 0.147 µM)	≤ 0.06 µg/mL	≤ 0.06 µg/mL	≤ 0.06 µg/mL	≤ 0.06 µg/mL	≤ 0.06 µg/mL	≤ 0.06 µg/mL	≤ 0.06 µg/mL	4 µg/mL (≈ 2.35 µM)	≤ 0.06 µg/mL	≤ 0.06 µg/mL	> 64 µg/mL	> 64 µg/mL	0.25 µg/mL (≈ 0.147 µM)	2 µg/mL (≈ 1.18 µM)	MIC [17]: 8 µg/mL (≈ 4.71 µM); MIC [18]: ≤ 0.06 µg/mL; mean geometric MIC, Vancomycin Resistant Strains [19]: 64 µg/mL; mean geometric MIC, Vancomycin Sensitive Strains [20]: 1 µg/mL
CC(C)CC(C(=O)NC1C(=O)NC(CC(N)=O)C(=O)NC2C(=O)NC3C(=O)NC(C(=O)NC(C(=O)O)c4cc(O)cc(O)c4-c4cc3ccc4O)C(OC3CC(C)(N)C(O)C(C)O3)c3ccc(c(Cl)c3)Oc3cc2cc(c3OC2OC(CO)C(O)C(O)C2OC2CC(C)(NCc3ccccn3)C(O)C(C)O2)Oc2ccc(cc2Cl)C1O)N(C)Cc1ccccn1 (stereo not drawn) [Compound 281]	32 µg/mL (≈ 18 µM)	32 µg/mL (≈ 18 µM)	4 µg/mL (≈ 2.25 µM)	8 µg/mL (≈ 4.51 µM)	64 µg/mL (≈ 36.1 µM)	> 64 µg/mL	32 µg/mL (≈ 18 µM)	> 64 µg/mL	4 µg/mL (≈ 2.25 µM)	> 64 µg/mL	> 64 µg/mL	16 µg/mL (≈ 9.02 µM)	0.5 µg/mL (≈ 0.282 µM)	> 64 µg/mL	8 µg/mL (≈ 4.51 µM)	> 64 µg/mL	> 64 µg/mL	> 64 µg/mL	> 64 µg/mL	> 64 µg/mL	MIC [17]: > 64 µg/mL; MIC [18]: ≤ 0.06 µg/mL; mean geometric MIC, Vancomycin Resistant Strains [19]: > 128 µg/mL; mean geometric MIC, Vancomycin Sensitive Strains [20]: 37 µg/mL
CC(C)CC(C(=O)NC1C(=O)NC(CC(N)=O)C(=O)NC2C(=O)NC3C(=O)NC(C(=O)NC(C(=O)O)c4cc(O)cc(O)c4-c4cc3ccc4O)C(OC3CC(C)(N)C(O)C(C)O3)c3ccc(c(Cl)c3)Oc3cc2cc(c3OC2OC(CO)C(O)C(O)C2OC2CC(C)(NCC3CC=CCC3)C(O)C(C)O2)Oc2ccc(cc2Cl)C1O)N(C)CC1CC=CCC1 (stereo not drawn) [Compound 287]	1 µg/mL (≈ 0.562 µM)	0.25 µg/mL (≈ 0.14 µM)	0.125 µg/mL (≈ 0.0702 µM)	0.25 µg/mL (≈ 0.14 µM)	1 µg/mL (≈ 0.562 µM)	4 µg/mL (≈ 2.25 µM)	0.5 µg/mL (≈ 0.281 µM)	1 µg/mL (≈ 0.562 µM)	≤ 0.06 µg/mL	0.5 µg/mL (≈ 0.281 µM)	0.5 µg/mL (≈ 0.281 µM)	0.5 µg/mL (≈ 0.281 µM)	≤ 0.06 µg/mL	16 µg/mL (≈ 8.98 µM)	0.125 µg/mL (≈ 0.0702 µM)	0.5 µg/mL (≈ 0.281 µM)	> 64 µg/mL	> 64 µg/mL	4 µg/mL (≈ 2.25 µM)	8 µg/mL (≈ 4.49 µM)	MIC [17]: 16 µg/mL (≈ 8.98 µM); MIC [18]: ≤ 0.06 µg/mL; mean geometric MIC, Vancomycin Resistant Strains [19]: 45 µg/mL; mean geometric MIC, Vancomycin Sensitive Strains [20]: 1.1 µg/mL
CC(C)CC(C(=O)NC1C(=O)NC(CC(N)=O)C(=O)NC2C(=O)NC3C(=O)NC(C(=O)NC(C(=O)O)c4cc(O)cc(O)c4-c4cc3ccc4O)C(OC3CC(C)(N)C(O)C(C)O3)c3ccc(c(Cl)c3)Oc3cc2cc(c3OC2OC(CO)C(O)C(O)C2OC2CC(C)(NCc3c4c(cc5ccccc35)CCCC4)C(O)C(C)O2)Oc2ccc(cc2Cl)C1O)N(C)Cc1c2c(cc3ccccc13)CCCC2 (stereo not drawn) [Compound 262]	1 µg/mL (≈ 0.505 µM)	0.5 µg/mL (≈ 0.252 µM)	≤ 0.06 µg/mL	2 µg/mL (≈ 1.01 µM)	2 µg/mL (≈ 1.01 µM)	1 µg/mL (≈ 0.505 µM)	1 µg/mL (≈ 0.505 µM)	1 µg/mL (≈ 0.505 µM)	≤ 0.06 µg/mL	0.5 µg/mL (≈ 0.252 µM)	2 µg/mL (≈ 1.01 µM)	1 µg/mL (≈ 0.505 µM)	≤ 0.06 µg/mL	1 µg/mL (≈ 0.505 µM)	0.5 µg/mL (≈ 0.252 µM)	2 µg/mL (≈ 1.01 µM)	> 64 µg/mL	> 64 µg/mL	1 µg/mL (≈ 0.505 µM)	4 µg/mL (≈ 2.02 µM)	MIC [17]: 2 µg/mL (≈ 1.01 µM); MIC [18]: ≤ 0.06 µg/mL; mean geometric MIC, Vancomycin Resistant Strains [19]: 5.7 µg/mL; mean geometric MIC, Vancomycin Sensitive Strains [20]: 0.17 µg/mL
CC(C)CC(C(=O)NC1C(=O)NC(CC(N)=O)C(=O)NC2C(=O)NC3C(=O)NC(C(=O)NC(C(=O)O)c4cc(O)cc(O)c4-c4cc3ccc4O)C(OC3CC(C)(N)C(O)C(C)O3)c3ccc(c(Cl)c3)Oc3cc2cc(c3OC2OC(CO)C(O)C(O)C2OC2CC(C)(NCc3ccc4c(c3)CCCC4)C(O)C(C)O2)Oc2ccc(cc2Cl)C1O)N(C)Cc1ccc2c(c1)CCCC2 (stereo not drawn) [Compound 258]	2 µg/mL (≈ 1.06 µM)	0.25 µg/mL (≈ 0.133 µM)	4 µg/mL (≈ 2.13 µM)	1 µg/mL (≈ 0.532 µM)	1 µg/mL (≈ 0.532 µM)	1 µg/mL (≈ 0.532 µM)	1 µg/mL (≈ 0.532 µM)	1 µg/mL (≈ 0.532 µM)	2 µg/mL (≈ 1.06 µM)	2 µg/mL (≈ 1.06 µM)	2 µg/mL (≈ 1.06 µM)	1 µg/mL (≈ 0.532 µM)	≤ 0.06 µg/mL	1 µg/mL (≈ 0.532 µM)	0.5 µg/mL (≈ 0.266 µM)	1 µg/mL (≈ 0.532 µM)	> 64 µg/mL	> 64 µg/mL	2 µg/mL (≈ 1.06 µM)	1 µg/mL (≈ 0.532 µM)	MIC [17]: 2 µg/mL (≈ 1.06 µM); MIC [18]: ≤ 0.06 µg/mL; mean geometric MIC, Vancomycin Resistant Strains [19]: 8 µg/mL; mean geometric MIC, Vancomycin Sensitive Strains [20]: 1 µg/mL

Reference: patent US5840684A, “Glycopeptide antibiotic derivatives” (Eli Lilly and Company, priority 1995, dated 1998)
